PubChem BioAssay (NCI)
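Each compound was tested at five concentrations against cells in 96-well plates for 48 hours. GI50 is the concentration that inhibits growth by half. TGI marks complete inhibition of growth.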

Columns and labels:
Assay in all cases: growth of human tumour cells (NCI), 48 h
HOP-62 NSCLC = system: HOP-62 NSCLC
K-562 leukemia = system: K-562 leukemia
MALME-3M melanoma = system: MALME-3M melanoma
MDA-MB-435 = system: MDA-MB-435
NCI-H460 lung = system: NCI-H460 lung
NCI/ADR-RES ovarian = system: NCI/ADR-RES ovarian
OVCAR-3 ovarian = system: OVCAR-3 ovarian
OVCAR-4 ovarian = system: OVCAR-4 ovarian
SR leukemia = system: SR leukemia
BT-549 breast = system: BT-549 breast

SMILES	GI50 (HOP-62 NSCLC) [µM]	TGI (HOP-62 NSCLC) [µM]	GI50 (K-562 leukemia) [µM]	TGI (K-562 leukemia) [µM]	GI50 (MALME-3M melanoma) [µM]	TGI (MALME-3M melanoma) [µM]	GI50 (MDA-MB-435) [µM]	TGI (MDA-MB-435) [µM]	GI50 (NCI-H460 lung) [µM]	TGI (NCI-H460 lung) [µM]	GI50 (NCI/ADR-RES ovarian) [µM]	TGI (NCI/ADR-RES ovarian) [µM]	GI50 (OVCAR-3 ovarian) [µM]	TGI (OVCAR-3 ovarian) [µM]	GI50 (OVCAR-4 ovarian) [µM]	TGI (OVCAR-4 ovarian) [µM]	GI50 (SR leukemia) [µM]	TGI (SR leukemia) [µM]	GI50 (BT-549 breast) [µM]	TGI (BT-549 breast) [µM]
COC(=O)CCc1n(Cc2ccc3ccccc3c2)c2ccccc2[n+]1Cc1ccc2ccccc2c1	1.66	3.46	0.379	1.63	1.05	2.63	0.462	1.8	1.18	2.7	18.7	65.1	0.682	2.15	0.315	1.89	0.403	2.05	–	–
NC1=NN(c2ccccc2)C(=O)C1C(=O)C(=O)Nc1ccccc1 (stereo not given)	–	> 100	–	> 100	–	> 100	–	–	–	> 100	–	–	–	> 100	–	> 100	–	–	–	–
COc1ccc(C2(Cl)C(Cl)(C(F)(F)F)C2(Cl)C(F)(F)F)cc1 (stereo not given)	–	32.5	–	> 100	–	–	–	–	–	30.2	–	–	–	28.8	–	30	–	30.7	–	–
C=C(C)CC(C(=O)O)c1ccc(C)cc1 (stereo not given)	–	> 100	–	> 100	–	> 100	–	–	–	> 100	–	–	–	> 100	–	> 100	–	> 100	–	–
C[C@]12Cc3conc3C(O)=C1CC[C@@H]1C2CC[C@@]2(C)C1CC[C@@H]2O (stereo not given in full)	–	> 100	–	> 100	–	87.2	–	–	–	40.7	–	–	–	52.5	–	> 100	–	–	–	–
COc1ccc(-c2cnc(-c3ccc(OC)cc3)n2-c2cc(OC)c(OC)c(OC)c2)cc1	21.4	44.9	–	–	13.3	30.6	31.2	> 100	30.7	> 100	30.3	> 100	24.7	65	33.5	58.3	–	–	28.6	86.1
Cn1cnc([N+](=O)[O-])c1Sc1n[nH]c(-c2ccc(Cl)cc2)n1	–	54.9	–	51.3	–	26.4	–	–	–	53.6	–	–	–	40.4	–	57.4	–	42	–	–
COc1ccc(C)c2sc(N(Cc3cccnc3)C(=O)c3ccc(C#N)cc3)nc12	> 100	> 100	37.9	> 100	52.1	> 100	35.9	> 100	40	> 100	37.7	> 100	40.1	> 100	–	–	–	–	35	> 100
CC(=O)N1c2ccccc2N(C(C)=O)C1c1ccc(C2N(C(C)=O)c3ccccc3N2C(C)=O)[nH]1	–	> 100	–	> 100	–	> 100	–	–	–	> 100	–	–	–	> 100	–	> 100	–	> 100	–	–
CCN1/C(=C/C(C)=C/c2sc3ccc4ccccc4c3[n+]2CC)Sc2ccc3ccccc3c21	0.192	0.47	1.03	18.4	–	–	–	–	0.121	0.329	0.964	5.61	0.148	0.317	0.138	1.26	–	–	–	–
O=Cc1ccc(-c2ccc(-c3nc4ccccc4s3)cc2)o1	> 100	> 100	> 100	> 100	–	–	> 100	> 100	76.4	> 100	97.7	> 100	16	74.1	> 100	> 100	–	–	> 100	> 100
C=CC12CCCCC1CC(C(=O)OC)=C(O)C2 (stereo not given)	–	> 100	–	> 100	–	–	–	–	–	> 100	–	–	–	> 100	–	> 100	–	> 100	–	–
Cc1cc(-c2nc3sc(C)cn3c2/C=N/N=C(N)N)c(C)s1	3.17	8.64	> 100	> 100	–	–	2.13	4.79	6.18	21.5	14.6	29.2	2.04	9.56	10.7	27.4	> 100	> 100	–	–
O=CN/C=C/c1ccccc1	–	> 100	–	> 31.6	–	> 100	–	–	–	> 100	–	–	–	> 100	–	> 100	–	> 100	–	–
CCOC(=O)C1CC(=O)C=C2CCCCC21 (stereo not given)	–	> 100	–	> 100	–	> 100	–	–	–	> 100	–	–	–	> 100	–	> 100	–	–	–	–
N#Cc1c(N)nc2c(c1-c1ccc(Cl)cc1)COc1ccc(F)cc1-2	25.1	75.2	15.5	34.1	40.3	81.7	20.7	45.2	37.1	> 100	22.9	54.6	23.2	50.2	34.7	> 100	–	–	22	51.2
C=CCCn1nc(-c2ccccc2)oc1=O	–	> 100	–	> 100	–	> 100	–	–	–	> 100	–	–	–	> 100	–	> 100	–	> 100	–	–
COc1ccc(OC)c(N2CC(O)=C(c3nc4ccccc4s3)C2=N)c1	> 100	> 100	23.6	> 100	16.4	82	20.8	> 100	63	> 100	88.9	> 100	74.1	> 100	45.6	> 100	6.77	> 100	–	–
C[C@@H]1CC[C@@]2(C)OC(c3ccccc3)[C@H](CO)N2C1=O (stereo not given in full)	–	> 100	–	> 100	–	> 100	–	–	–	> 100	–	–	–	> 100	–	> 100	–	> 100	–	–
COc1ccc(O)c(/C=N\Nc2ccccc2)c1	–	> 100	–	> 100	–	–	–	43.8	–	> 100	–	> 100	–	–	–	> 100	–	–	–	> 100
N#CC(Sc1ccccc1)C(N)=O (stereo not given)	–	> 100	–	> 100	–	> 100	–	–	–	–	–	–	–	> 100	–	> 100	–	> 100	–	–
